Reference: PMC8311653, “Design, Synthesis, In Vitro and In Vivo Characterization of Selective NKCC1 Inhibitors for the Treatment of Core Symptoms in Down Syndrome” (Journal of Medicinal Chemistry, 2021)

How the values were obtained:
NKCC1 = target: T1, NKCC1 (Homo sapiens, UniProt P55011); assay: Cl- influx assay in NKCC1-transfected HEK293 cells; type: cell-based; details: for inhibition at 10 µM: HEK293, read-out: Inhibition 10 μM Cl- influx (%); for inhibition at 100 µM: HEK293, read-out: Inhibition 100 μM Cl- influx (%)
T1 construct: host or cells: HEK293
T1 sequence (P55011 1-1212): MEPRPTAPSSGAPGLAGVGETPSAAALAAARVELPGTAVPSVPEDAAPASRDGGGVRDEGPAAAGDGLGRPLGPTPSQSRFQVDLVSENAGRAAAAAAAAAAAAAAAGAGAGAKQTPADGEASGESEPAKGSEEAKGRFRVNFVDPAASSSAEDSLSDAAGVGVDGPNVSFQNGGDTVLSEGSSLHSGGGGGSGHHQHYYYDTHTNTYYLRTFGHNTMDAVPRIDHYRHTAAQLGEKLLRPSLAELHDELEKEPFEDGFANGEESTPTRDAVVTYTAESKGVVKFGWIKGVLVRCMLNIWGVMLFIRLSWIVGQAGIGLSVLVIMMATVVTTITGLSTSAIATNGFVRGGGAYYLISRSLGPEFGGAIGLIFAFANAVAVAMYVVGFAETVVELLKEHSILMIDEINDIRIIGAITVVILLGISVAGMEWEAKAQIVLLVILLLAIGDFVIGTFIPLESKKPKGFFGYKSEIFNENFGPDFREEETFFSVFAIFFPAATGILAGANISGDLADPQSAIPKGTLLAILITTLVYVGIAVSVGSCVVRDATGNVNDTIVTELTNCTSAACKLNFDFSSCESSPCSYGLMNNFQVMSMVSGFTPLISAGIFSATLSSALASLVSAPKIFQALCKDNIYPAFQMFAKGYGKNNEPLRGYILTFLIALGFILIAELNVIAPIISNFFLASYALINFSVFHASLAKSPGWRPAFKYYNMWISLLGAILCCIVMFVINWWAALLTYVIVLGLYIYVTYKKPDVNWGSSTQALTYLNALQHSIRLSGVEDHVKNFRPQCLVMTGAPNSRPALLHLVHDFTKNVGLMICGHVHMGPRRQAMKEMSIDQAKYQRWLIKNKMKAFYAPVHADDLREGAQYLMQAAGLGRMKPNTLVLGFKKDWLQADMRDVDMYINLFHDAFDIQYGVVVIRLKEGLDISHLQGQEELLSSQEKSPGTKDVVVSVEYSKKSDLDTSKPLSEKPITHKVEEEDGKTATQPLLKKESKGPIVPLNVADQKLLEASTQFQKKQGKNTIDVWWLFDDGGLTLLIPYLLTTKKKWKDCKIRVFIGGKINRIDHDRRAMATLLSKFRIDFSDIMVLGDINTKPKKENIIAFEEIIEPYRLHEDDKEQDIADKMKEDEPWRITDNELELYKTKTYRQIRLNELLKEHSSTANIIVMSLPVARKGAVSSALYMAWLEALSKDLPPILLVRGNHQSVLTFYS
Experimental: HEK293 cells were cultured in Dulbecco’s modified Eagle’s medium (DMEM) supplemented with 10% fetal bovine serum, 1% L-glutamine, 100 U/mL penicillin, and 100 μg/mL streptomycin and maintained at 37 °C in a 5% CO2 humidified atmosphere. To assess NKCC1 and NKCC2 activity (Cl^– influx assay), 3 million HEK cells were plated in a 10 cm cell-culture dish and transfected with a transfection mixture comprising 5 mL of DMEM, 4 mL of Opti-MEM, 8 μg of DNA plasmid coding for NKCC1 (PRK-NKCC1 obtained from Medical Research Council and the University of Dundee), NKCC2 (OriGene plasmid #RC216145) subcloned in PRK5 plasmid, or mock control (empty vector), together with 8 μg of a plasmid coding for the Cl^–-sensitive variant of the membrane-targeted fluorescent protein YFP, mbYFPQS (Addgene plasmid #80742),[53] and 32 μL of Lipofectamin 2000. To assess KCC2 activity (Tl influx assay), cells were transfected with 8 μg of KCC2[54] subcloned in the PRK5 plasmid or mock control (empty vector) and 16 μL of Lipofectamin 2000. After 4 h, the cells were collected and plated in 96-well black-walled, clear-bottomed plates at a density of 2.5 × 10^4. After 48 h, cells were used for the Cl^– or Tl influx assays. All reagents were purchased from Life Technologies, unless otherwise specified.
Transfected cells were treated with 10 μM or 100 μM bumetanide (as positive controls), DMSO (as the negative control), or with each of our compounds in 100 μL/well of a Cl^–-free hypotonic solution (67.5 mM Na^+ gluconate, 2.5 mM K^+ gluconate, 15 mM HEPES pH 7.4, 50 mM glucose, 1 mM Na2HPO4, 1 mM NaH2PO4, 1 mM MgSO4, and 1 mM CaSO4). After 30 min of incubation, plates were loaded into a Victor 3V (PerkinElmer) multiplate reader equipped with an automatic liquid injector system, and fluorescence of Cl^–-sensitive mbYFPQS was recorded with excitation at 485 nm and emission at 535 nm. For each well, fluorescence was first recorded for 20 s of the baseline and for 60 s after delivery of a NaCl concentrated solution (74 mM final concentration in the assay well). Fluorescence of Cl^–-sensitive mbYFPQS is inversely correlated to the intracellular Cl^– concentration;[53] therefore, chloride influx into the cells determined a decrease in mbYFPQS fluorescence. To represent the fluorescent traces in time, we normalized the fluorescence value for each time point to the average of the fluorescence value of the first 20 s of the baseline (ΔF/F0). To quantify the average effects as represented by the bar plots, we expressed the decrease in fluorescence upon NaCl application as the average of the last 10 s of ΔF/F0 normalized traces. Moreover, for each experiment, to account for the contribution of Cl^– changes that were dependent on transporters/exchangers other than NKCC1 or NKCC2, we subtracted the value of the last 10 s of ΔF/F0 normalized traces obtained from mock-transfected cells (either control or treated) from the respective ΔF/F0 value obtained from the cells transfected with NKCC1 or NKCC2. We then presented in the figures all the data as a percentage of the fluorescence decrease versus the value of the control DMSO.

WT and Ts65Dn mice = assay: Diuresis analysis in metabolic cages; details: 0.6 mg kg-1 ip; adult WT and Ts65Dn mice; vs vehicle-treated mice
Experimental: A veterinarian was employed to maintain the health and comfort of the animals. Mice were housed in filtered cages in a temperature-controlled room with a 12:12 h dark/light cycle and with ad libitum access to water and food. All efforts were made to minimize animal suffering and use the lowest possible number of animals required to produce statistical relevant results, according to the “3Rs concept”. In this study, we used Ts65Dn mice maintained in their original genetic background[57] by crossing (more than 40 times) Ts65Dn female to C57BL/6JEi × C3SnHeSnJ (B6EiC3) F1 males (Jackson Laboratories). Ts65Dn mice were genotyped by PCR as previously described.[58] Only males were used for behavioral experiments. Ts65Dn and controls were randomly assigned to vehicle groups (2% DMSO in saline), bumetanide (Sigma, 0.6 mg kg^–1 body weight), or 40 (0.6 mg kg^–1 body weight) and treated daily for ∼21 days by intraperitoneal injection (i.p.). On the day of behavioral testing, injection was performed 1 h before the task began.

| SMILES | inhibition at 10 µM (NKCC1) | inhibition at 100 µM (NKCC1) | diuretic effect (urine volume collected for 2 h) (WT and Ts65Dn mice) |
| --- | --- | --- | --- |
| CN(C)S(=O)(=O)c1cc(C(=O)O)ccc1NCCCCCCCC(F)(F)F [Compound 1, 3-(-N,N-Dimethylsulfamoyl)-4-(8,8,8-trifluorooctylamino)benzoic Acid] | 37.1 ± 5% | 88.5 ± 1.7% |  |
| CN(C)S(=O)(=O)c1cc(C(=O)O)c(O)cc1NCCCCCCCC(F)(F)F [Compound 40, 5-(N,N-Dimethylsulfamoyl)-2-hydroxy-4-((8,8,8-trifluorooctyl)amino)benzoic Acid] |  |  | did not induce any significant diuresis |
| CCCCNc1cc(C(=O)O)cc(S(N)(=O)=O)c1Oc1ccccc1 [bumetanide, reference compound] | 58.8 ± 5.6% | 71.7 ± 7% | significantly increased the urine volume |
